Test results taken from ChEMBL document CHEMBL1201862, “PubChem BioAssay data set” (2004).
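These data come from cells grown in 96-well plates and exposed to compound for 48 hours at five concentrations. GI50 marks 50% less growth.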 Activity calls are given as the source filed them. No stated cut-off is given here; in the data, active = GI50 up to about 1.1 µM and inactive = higher.

Key:
Assay in all cases: NCI-60 cell line screen, 48 h
HCC 2998 = test system: HCC 2998
OVCAR-8 = test system: OVCAR-8
NCI/ADR-RES = test system: NCI/ADR-RES
OVCAR-3 = test system: OVCAR-3
A498 = test system: A498
UACC-257 = test system: UACC-257
BT-549 = test system: BT-549
RPMI-8226 = test system: RPMI-8226
MDA-MB-435 = test system: MDA-MB-435
NCI-H226 = test system: NCI-H226
NCI-H23 = test system: NCI-H23
COLO 205 = test system: COLO 205
SK-OV-3 = test system: SK-OV-3
OVCAR-4 = test system: OVCAR-4
SK-MEL-5 = test system: SK-MEL-5
SF-268 = test system: SF-268
HT-29 = test system: HT-29
CCRF-CEM = test system: CCRF-CEM
SF-539 = test system: SF-539
Hs-578T = test system: Hs-578T
ACHN = test system: ACHN
LOX IMVI = test system: LOX IMVI
EKVX = test system: EKVX
HCT-116 = test system: HCT-116
UO-31 = test system: UO-31
SK-MEL-28 = test system: SK-MEL-28
786-0 = test system: 786-0
OVCAR-5 = test system: OVCAR-5
SK-MEL-2 = test system: SK-MEL-2
A549 = test system: A549
PC-3 = test system: PC-3
T47D = test system: T47D
HOP-92 = test system: HOP-92
CAKI-1 = test system: CAKI-1
DU-145 = test system: DU-145
MOLT-4 = test system: MOLT-4
SN12C = test system: SN12C
KM12 = test system: KM12
HOP-62 = test system: HOP-62
MCF7 = test system: MCF7
NCI-H522 = test system: NCI-H522
MDA-MB-231 = test system: MDA-MB-231
SW-620 = test system: SW-620
IGROV-1 = test system: IGROV-1
U-251 = test system: U-251
HCT-15 = test system: HCT-15
SF-295 = test system: SF-295
M14 = test system: M14
TK-10 = test system: TK-10
K562 = test system: K562
RXF 393 = test system: RXF 393
SNB-19 = test system: SNB-19
SR = test system: SR
UACC-62 = test system: UACC-62
SNB-75 = test system: SNB-75
NCI-H460 = test system: NCI-H460
Malme-3M = test system: Malme-3M
HL-60 = test system: HL-60
MDA-N = test system: MDA-N

Measured: GI50

Oc1c2cccc1Cc1cccc3c1OCCOCCOCCOCCOc1c(cccc1Cc1cccc(c1O)C3)C2
inactive: HCC 2998 > 100 µM | OVCAR-8 85.7 µM | NCI/ADR-RES 39.3 µM | A498 > 100 µM | UACC-257 66.2 µM | BT-549 > 100 µM | RPMI-8226 > 100 µM | MDA-MB-435 > 100 µM | NCI-H226 22.5 µM | NCI-H23 > 100 µM | COLO 205 > 100 µM | SK-OV-3 > 100 µM | OVCAR-4 > 100 µM | SK-MEL-5 > 100 µM | SF-268 > 100 µM | HT-29 54.3 µM | CCRF-CEM > 100 µM | SF-539 94.6 µM | Hs-578T 18.4 µM | ACHN > 100 µM | LOX IMVI > 100 µM | EKVX > 100 µM | HCT-116 7.43 µM | UO-31 > 100 µM | SK-MEL-28 > 100 µM | 786-0 > 100 µM | OVCAR-5 > 100 µM | SK-MEL-2 > 100 µM | A549 > 100 µM | PC-3 17.1 µM | T47D > 100 µM | HOP-92 > 100 µM | CAKI-1 > 100 µM | DU-145 > 100 µM | MOLT-4 > 100 µM | SN12C > 100 µM | KM12 > 100 µM | HOP-62 > 100 µM | MCF7 > 100 µM | NCI-H522 18.5 µM | MDA-MB-231 89.7 µM | SW-620 > 100 µM | IGROV-1 > 100 µM | U-251 > 100 µM | SF-295 9.29 µM | M14 > 100 µM | TK-10 > 100 µM | K562 > 100 µM | RXF 393 > 100 µM | SNB-19 > 100 µM | SR 2.06 µM | UACC-62 26.7 µM | SNB-75 22 µM
active: OVCAR-3 0.897 µM
> 100 µM: HCT-15

CCOC(=O)CCC(NC(=O)c1ccc(CNc2nc3cc(N)cc(N)c3nc2-c2ccccc2)cc1)C(=O)OCC (configuration not stated)
inactive: HCC 2998 > 100 µM | OVCAR-8 > 100 µM | NCI/ADR-RES > 100 µM | OVCAR-3 27 µM | A498 > 100 µM | UACC-257 19 µM | BT-549 > 100 µM | MDA-MB-435 43.1 µM | NCI-H226 > 100 µM | NCI-H460 34 µM | NCI-H23 > 67.6 µM | COLO 205 27.5 µM | SK-OV-3 > 100 µM | OVCAR-4 17.4 µM | SK-MEL-5 > 83 µM | SF-268 > 100 µM | HT-29 > 100 µM | SF-539 > 100 µM | Hs-578T > 84.5 µM | ACHN > 100 µM | LOX IMVI 99.3 µM | EKVX > 100 µM | HCT-116 > 95.9 µM | UO-31 > 100 µM | SK-MEL-28 28.2 µM | 786-0 > 100 µM | OVCAR-5 > 100 µM | SK-MEL-2 28.8 µM | A549 > 100 µM | PC-3 > 100 µM | T47D 20.7 µM | HOP-92 39.9 µM | CAKI-1 > 100 µM | DU-145 > 89.3 µM | MOLT-4 1.45 µM | SN12C > 61.5 µM | KM12 > 85.7 µM | HOP-62 > 100 µM | Malme-3M 18.3 µM | MCF7 > 87.3 µM | NCI-H522 28.4 µM | MDA-MB-231 22.3 µM | SW-620 > 100 µM | IGROV-1 > 87.1 µM | U-251 > 100 µM | HL-60 10.7 µM | SF-295 > 100 µM | M14 28.4 µM | TK-10 > 100 µM | K562 15.3 µM | RXF 393 > 58.9 µM | SNB-19 > 100 µM | SR 3.64 µM | UACC-62 > 86.3 µM | SNB-75 > 100 µM
> 69.5 µM: HCT-15

CC(SC(=S)N1CCOCC1)C(=O)Nc1nnc(-c2ccc(Cl)cc2)o1 (configuration not stated)
inactive: HCC 2998 > 100 µM | OVCAR-8 42.2 µM | NCI/ADR-RES 23.6 µM | OVCAR-3 25.8 µM | A498 60.5 µM | UACC-257 46.1 µM | BT-549 > 100 µM | RPMI-8226 23.2 µM | MDA-MB-435 40.2 µM | NCI-H226 67.8 µM | NCI-H460 35.2 µM | NCI-H23 50.2 µM | COLO 205 38.4 µM | SK-OV-3 67.3 µM | OVCAR-4 26.7 µM | SK-MEL-5 31.6 µM | SF-268 44.3 µM | HT-29 36.9 µM | SF-539 74.5 µM | Hs-578T > 100 µM | ACHN 51.2 µM | LOX IMVI 28.8 µM | HCT-116 23.8 µM | UO-31 22.4 µM | SK-MEL-28 > 100 µM | 786-0 27.9 µM | OVCAR-5 48.6 µM | SK-MEL-2 31.8 µM | A549 34.5 µM | PC-3 38.5 µM | T47D 51.3 µM | HOP-92 > 100 µM | DU-145 79.6 µM | MOLT-4 16.1 µM | SN12C 36.1 µM | HOP-62 52 µM | Malme-3M > 100 µM | MCF7 32.3 µM | MDA-MB-231 51.5 µM | SW-620 42.6 µM | IGROV-1 33.8 µM | U-251 35 µM | M14 36 µM | TK-10 79.8 µM | RXF 393 > 100 µM | SNB-19 40 µM | SR 8.07 µM | UACC-62 50.6 µM | SNB-75 > 100 µM
20.7 µM: HCT-15
active: CCRF-CEM < 0.01 µM

Cc1ccc(C2SCC(=O)N2NC(=O)c2ccncc2)s1 (configuration not stated)
inactive: HCC 2998 > 100 µM | OVCAR-8 > 100 µM | NCI/ADR-RES > 100 µM | OVCAR-3 > 100 µM | A498 > 100 µM | UACC-257 > 100 µM | BT-549 > 100 µM | RPMI-8226 > 100 µM | MDA-MB-435 > 100 µM | NCI-H226 > 100 µM | NCI-H23 > 100 µM | COLO 205 > 100 µM | SK-OV-3 > 100 µM | OVCAR-4 > 100 µM | SK-MEL-5 > 100 µM | SF-268 > 100 µM | HT-29 > 100 µM | CCRF-CEM > 100 µM | SF-539 > 100 µM | ACHN > 100 µM | LOX IMVI > 100 µM | EKVX > 100 µM | HCT-116 > 100 µM | UO-31 > 100 µM | SK-MEL-28 > 100 µM | 786-0 > 100 µM | OVCAR-5 > 100 µM | SK-MEL-2 > 100 µM | A549 > 100 µM | PC-3 > 100 µM | T47D > 100 µM | HOP-92 > 100 µM | CAKI-1 > 100 µM | DU-145 > 100 µM | MOLT-4 > 100 µM | SN12C > 100 µM | KM12 > 100 µM | HOP-62 > 100 µM | Malme-3M > 100 µM | MCF7 > 100 µM | NCI-H522 > 100 µM | MDA-MB-231 > 100 µM | SW-620 > 100 µM | IGROV-1 > 100 µM | U-251 > 100 µM | SF-295 > 100 µM | M14 > 100 µM | TK-10 > 100 µM | K562 > 100 µM | MDA-N > 100 µM | RXF 393 > 100 µM | SNB-19 > 100 µM | SR > 100 µM | UACC-62 > 100 µM
> 100 µM: HCT-15
